Molecular target: T1, McjD (Escherichia coli, UniProt Q9X2W0)
T1 construct: reconstituted in E. coli polar lipid proteoliposomes for transport; plasmid-encoded mcjABCD operon
Assay: ATP-dependent Hoechst fluorescence uptake in proteoliposomes
Type: biochemical
Conditions: 0.1 μM Hoechst, 50 mM Tris pH 8, 50 mM KCl, E. coli polar lipids

T1 sequence (Q9X2W0 whole entry): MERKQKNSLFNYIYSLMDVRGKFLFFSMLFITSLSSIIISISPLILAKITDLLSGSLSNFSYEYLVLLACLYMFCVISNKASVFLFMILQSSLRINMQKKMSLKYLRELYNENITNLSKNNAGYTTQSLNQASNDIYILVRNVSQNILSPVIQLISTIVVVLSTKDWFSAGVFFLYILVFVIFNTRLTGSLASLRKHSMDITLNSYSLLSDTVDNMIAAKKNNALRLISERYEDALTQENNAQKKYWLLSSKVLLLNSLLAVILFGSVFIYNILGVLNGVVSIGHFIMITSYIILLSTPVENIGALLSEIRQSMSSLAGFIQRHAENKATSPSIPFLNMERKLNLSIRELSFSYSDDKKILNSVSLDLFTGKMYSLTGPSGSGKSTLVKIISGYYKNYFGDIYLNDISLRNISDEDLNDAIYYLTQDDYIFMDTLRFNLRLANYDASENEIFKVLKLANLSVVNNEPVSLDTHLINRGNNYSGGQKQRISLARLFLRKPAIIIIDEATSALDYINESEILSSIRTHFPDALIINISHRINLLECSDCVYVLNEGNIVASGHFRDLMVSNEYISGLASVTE

SMILES: CCOc1ccc(-c2nc3ccc(-c4nc5ccc(N6CCN(C)CC6)cc5[nH]4)cc3[nH]2)cc1 [Hoechst 33342]
- ATP-dependent Hoechst fluorescence uptake in proteoliposomes: McjD mediates the ATP‐dependent uptake of Hoechst in proteoliposomes (black line)
